From patent US20250304542A1, “Fused Heterobicyclic Antiviral Agents” (Enanta Pharmaceuticals, Inc., priority 2024, published 2025)
Like-named read-outs stand apart in the source and are kept apart here.

Assays:
NTCP = target: T1, NTCP (Homo sapiens, UniProt Q14973); assay: HepG2-NTCP preS1 Binding Competition Assay; conditions: HepG2-NTCP cells pre-treated 2 hours, FITC-labeled myristoylated preS1 peptide co-incubated 30 minutes, cell-surface fluorescence; read-out: Cellular EC50
T1 construct: expressed in transfected cells; host or cells: HepG2-NTCP (A3 clone, kept under puromycin)
T1 sequence (Q14973 1-349): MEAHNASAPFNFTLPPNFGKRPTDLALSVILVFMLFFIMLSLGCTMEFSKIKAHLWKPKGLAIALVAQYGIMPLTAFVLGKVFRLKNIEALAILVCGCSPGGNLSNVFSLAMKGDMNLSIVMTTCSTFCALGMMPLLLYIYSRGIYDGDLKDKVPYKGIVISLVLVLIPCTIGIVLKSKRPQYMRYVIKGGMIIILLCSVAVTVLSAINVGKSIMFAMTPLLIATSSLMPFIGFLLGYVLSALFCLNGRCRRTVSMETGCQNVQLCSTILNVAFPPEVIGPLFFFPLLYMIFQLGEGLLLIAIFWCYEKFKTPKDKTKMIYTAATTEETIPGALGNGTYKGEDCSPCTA
Procedure: Myristoylated preS1 peptide (2-48 aa) conjugated to a C-terminal FITC tag was synthesized to evaluate preS1 binding to NTCP-expressing cells. HepG2-NTCP cells seeded in 384-wells were pre-treated with compounds for 2 hours prior to the addition of FITC-labeled preS1 peptide. After co-incubation for 30 minutes, unbound FITC-preS1 peptide was washed twice with PBS, and the fluorescence of preS1-FITC bound to cell surface was detected by Envision plate reader. EC50 ranges are as follows: A<0.1 μM; B 0.1-1 μM; C>1 μM. A dash (-) indicates the compound was not tested.

HBV = HBV Infection in HepG2-NTCP Cells (HBeAg AlphaLISA); assay type: cell-based; conditions: Hepatitis B virus, 192 h
Procedure: HepG2-NTCP A3 cells were maintained in DMEM media supplemented with GlutaMAX™, 10% fetal bovine serum, 1% penicillin/streptomycin, and 5 μg/mL puromycin at 37° C. in a humidified atmosphere with 5% CO2 in a collagen-coated tissue culture flask.
HepG2-NTCP cells were seeded in 384 well plate containing 16,000 cells/well two days prior to the infection. On the day of infection, compounds were 3-fold serially diluted in DMSO and pre-incubated with HepG2-NTCP cells for two hours before purified HBV addition. HBV infection was carried out at 2000 GE/cell with 4% PEG, and the final concentration of DMSO is 0.5%. On day one post infection, HBV-containing media was aspirated, cells were washed once with PBS and then maintained in 2.5% DMSO containing media for the remainder of the assay.
Supernatants from infected HepG2-NTCP cells were collected at day 8 post infection, and the amount of viral antigen HBeAg was measured by HBeAg AlphaLISA detection kit (PerkinElmer) following the manufacturer's recommended protocol. Irrespective of readout, compound concentrations that reduce viral product accumulation in supernatants by 50% relative to DMSO controls (EC50) are reported. EC50 ranges are as follows: A<0.1 μM; B 0.1-1 μM; C>1 μM. A dash (-) indicates the compound was not tested.

Row | EC50 (NTCP) [nM] | EC50 (HBV; HBV-infected HepG2-NTCP cells, HBeAg in supernatants at day 8 post infection, 50% reduction relative to DMSO controls, read-out: Cellular EC50) [µM] | Compound | EC50 (HBV; read-out: Cellular EC50 (μM)) [µM]
1 | 100 to 1000 |  | CNc1cc2c(cc1C(=O)N[C@@H](C(=O)O)c1cccc(Cl)c1)S(=O)(=O)N(C)[C@H](C1CCCCC1)CN2c1ccccc1 [Example 46] | 
2 | 100 to 1000 |  | CCCCCC(=O)N[C@@H](CCc1cc2c(cc1Cl)N(c1ccccc1)C[C@@H](C1CCCCC1)N(C)S2(=O)=O)C(=O)O [Example 36, (S)-4-((R)-7-chloro-3-cyclohexyl-2-methyl-1,1-dioxido-5-phenyl-2,3,4,5-tetrahydrobenzo[f][1,2,5]thiadiazepin-8-yl)-2-hexanamidobutanoic acid] | 
3 | 100 to 1000 |  | CCOC(=O)N[C@@H](CCc1cc2c(cc1Cl)N(c1ccccc1)C[C@@H](C1CCCCC1)N(C)S2(=O)=O)C(=O)O [Example 18] | 
4 | > 1000 |  | CNc1cc2c(cc1C(=O)NC1(C(=O)O)CC1)S(=O)(=O)N(C)[C@H](C1CCCCC1)CN2c1ccccc1 [Example 42] | 
5 | 100 to 1000 |  | CC(C)CS(=O)(=O)N[C@@H](CCc1cc2c(cc1Cl)N(c1ccccc1)C[C@@H](C1CCCCC1)N(C)S2(=O)=O)C(=O)O [Example 28, (S)-4-((R)-7-chloro-3-cyclohexyl-2-methyl-1,1-dioxido-5-phenyl-2,3,4,5-tetrahydrobenzo[f][1,2,5]thiadiazepin-8-yl)-2-((2-methylpropyl)sulfonamido)butanoic acid] | 
6 |  | 0.1 to 1 | CN1[C@H](C2CCCCC2)CN(c2ccccc2)c2cc(Cl)c(OCC(C)(C)C(=O)O)cc2S1(=O)=O [Example 38, (R)-3-((7-chloro-3-cyclohexyl-2-methyl-1,1-dioxido-5-phenyl-2,3,4,5-tetrahydrobenzo[f][1,2,5]thiadiazepin-8-yl)oxy)-2,2-dimethylpropanoic acid] | 
7 | 100 to 1000 |  | CN1[C@H](C2CCCCC2)CN(c2ccccc2)c2cc(Cl)c(CC[C@@H](NC(=O)OCc3ccccc3)C(=O)O)cc2S1(=O)=O [Example 23] | 
8 | 100 to 1000 |  | CN1[C@H](C2CCCCC2)CN(c2ccccc2)c2cc(Cl)c(CC[C@H](NC(=O)N3CCCCC3)C(=O)O)cc2S1(=O)=O [Example 27] | 
9 | 100 to 1000 |  | CCN(C)C(=O)N[C@H](CCc1cc2c(cc1Cl)N(c1ccccc1)C[C@@H](C1CCCCC1)N(C)S2(=O)=O)C(=O)O [Example 25, (R)-4-((R)-7-chloro-3-cyclohexyl-2-methyl-1,1-dioxido-5-phenyl-2,3,4,5-tetrahydrobenzo[f][1,2,5]thiadiazepin-8-yl)-2-(3-ethyl-3-methylureido)butanoic acid] | 
10 | 100 to 1000 |  | CN1[C@H](C2CCCCC2)CN(c2ccccc2)c2cc(Cl)c(CC[C@H](NC(=O)C(=O)N3CCCC3)C(=O)O)cc2S1(=O)=O [Example 35] | 
11 | 100 to 1000 |  | CN1[C@H](C2CCCCC2)CN(c2ccccc2)c2cc(Cl)c(CC[C@@H](NC(=O)N3CCCCC3)C(=O)O)cc2S1(=O)=O [Example 24, (R)-4-((R)-7-chloro-3-cyclohexyl-2-methyl-1,1-dioxido-5-phenyl-2,3,4,5-tetrahydrobenzo[f][1,2,5]thiadiazepin-8-yl)-2-(piperidine-1-carboxamido)butanoic acid] | 
12 | > 1000 |  | CNc1cc2c(cc1C(=O)N[C@H](C(=O)O)C1CCOCC1)S(=O)(=O)N(C)[C@H](C1CCCCC1)CN2c1ccccc1 [Example 44] | 
13 | 100 to 1000 |  | CCCCCCCCCOC(=O)N[C@H](CCc1cc2c(cc1Cl)N(c1ccccc1)C[C@@H](C1CCCCC1)N(C)S2(=O)=O)C(=O)O [Example 21] | 
14 | 100 to 1000 |  | CNc1cc2c(cc1C(=O)NC(C)(C)C(=O)O)S(=O)(=O)N(C)[C@H](C1CCCCC1)CN2c1ccccc1 [Example 43] | 
15 | 100 to 1000 |  | CCN(C)C(=O)N[C@@H](CCc1cc2c(cc1Cl)N(c1ccccc1)C[C@@H](C1CCCCC1)N(C)S2(=O)=O)C(=O)O [Example 26] | 
16 | 100 to 1000 |  | CN1[C@H](C2CCCCC2)CN(C2CCCCC2)c2cc(Cl)c(/C=C/C(C)(C)C(=O)O)cc2S1(=O)=O [Example 10, (R,E)-4-(7-chloro-3,5-dicyclohexyl-2-methyl-1,1-dioxido-2,3,4,5-tetrahydrobenzo[f][1,2,5]thiadiazepin-8-yl)-2,2-dimethylbut-3-enoic acid] | 
17 | 100 to 1000 |  | CCOC(=O)N[C@H](CCc1cc2c(cc1Cl)N(c1ccccc1)C[C@@H](C1CCCCC1)N(C)S2(=O)=O)C(=O)O [Example 19] | 
18 | 100 to 1000 |  | CCCCCOC(=O)N[C@H](CCc1cc2c(cc1Cl)N(c1ccccc1)C[C@@H](C1CCCCC1)N(C)S2(=O)=O)C(=O)O [Example 17] | 
19 | 100 to 1000 |  | CCCCCCCCCOC(=O)N[C@@H](CCc1cc2c(cc1Cl)N(c1ccccc1)C[C@@H](C1CCCCC1)N(C)S2(=O)=O)C(=O)O [Example 20] | 

Row | Compound | EC50 (NTCP) [nM] | EC50 (HBV; HBV-infected HepG2-NTCP cells, HBeAg in supernatants at day 8 post infection, 50% reduction relative to DMSO controls, read-out: Cellular EC50) [µM] | EC50 (HBV; read-out: Cellular EC50 (μM)) [µM]
20 | CN1[C@H](C2CCCCC2)CN(c2ccccc2)c2cc(Cl)c(CC[C@H](NC(=O)OCc3ccccc3)C(=O)O)cc2S1(=O)=O [Example 22] | 100 to 1000 |  | 0.1 to 1
21 | CCCCCOC(=O)N[C@@H](CCc1cc2c(cc1Cl)N(c1ccccc1)C[C@@H](C1CCCCC1)N(C)S2(=O)=O)C(=O)O [Example 16] | 100 to 1000 |  | 0.1 to 1
22 | CCCCN(C)C(=O)C(=O)N[C@H](CCc1cc2c(cc1Cl)N(c1ccccc1)C[C@@H](C1CCCCC1)N(C)S2(=O)=O)C(=O)O [Example 33] | 100 to 1000 |  | 0.1 to 1
23 | CN1[C@H](C2CCCCC2)CN(C2CCCCC2)c2ccc(CCC(C)(C)C(=O)O)cc2S1(=O)=O [Example 3, (R)-4-(3,5-dicyclohexyl-2-methyl-1,1-dioxido-2,3,4,5-tetrahydrobenzo[f][1,2,5]thiadiazepin-8-yl)-2,2-dimethylbutanoic acid] | < 100 |  | 0.1 to 1
24 | CN1[C@H](C2CCCCC2)CN(c2ccccc2)c2cc(Cl)c(CCC(C)(C)C(=O)O)cc2S1(=O)=O [Example 2, (R)-4-(7-chloro-3-cyclohexyl-2-methyl-1,1-dioxido-5-phenyl-2,3,4,5-tetrahydrobenzo[f][1,2,5]thiadiazepin-8-yl)-2,2-dimethylbutanoic acid] | < 100 |  | < 0.1
25 | CC(C)COC(=O)N[C@H](CCc1cc2c(cc1Cl)N(c1ccccc1)C[C@@H](C1CCCCC1)N(C)S2(=O)=O)C(=O)O [Example 15] | 100 to 1000 |  | < 0.1
26 | CC(C)Oc1cccc(COc2cc3c(cc2C#CC2(C(=O)O)CC2)S(=O)(=O)N(C)[C@H](C2CCCCC2)CN3c2ccccc2)c1 [Example 11, (R)-1-((3-cyclohexyl-7-((3-isopropoxybenzyl)oxy)-2-methyl-1,1-dioxido-5-phenyl-2,3,4,5-tetrahydrobenzo[f][1,2,5]thiadiazepin-8-yl)ethynyl)cyclopropane-1-carboxylic acid] | 100 to 1000 |  | < 0.1
27 | CCCCNC(=O)C(=O)N[C@@H](CCc1cc2c(cc1Cl)N(c1ccccc1)C[C@@H](C1CCCCC1)N(C)S2(=O)=O)C(=O)O [Example 34] | < 100 |  | < 0.1
28 | CN1[C@H](C2CCCCC2)CN(C2CCCCC2)c2cc(Cl)c(CCC(C)(C)C(=O)O)cc2S1(=O)=O [Example 4, (R)-4-(7-chloro-3,5-dicyclohexyl-2-methyl-1,1-dioxido-2,3,4,5-tetrahydrobenzo[f][1,2,5]thiadiazepin-8-yl)-2,2-dimethylbutanoic acid] | < 100 |  | 0.1 to 1
29 | CC(C)COC(=O)N[C@@H](CCc1cc2c(cc1Cl)N(c1ccccc1)C[C@@H](C1CCCCC1)N(C)S2(=O)=O)C(=O)O [Example 14, (S)-4-((R)-7-chloro-3-cyclohexyl-2-methyl-1,1-dioxido-5-phenyl-2,3,4,5-tetrahydrobenzo[f][1,2,5]thiadiazepin-8-yl)-2-((isobutoxycarbonyl)amino)butanoic acid] | 100 to 1000 |  | < 0.1
30 | CN1[C@H](C2CCCCC2)CN(c2ccccc2)c2cc(Cl)c(C#CC3(C(=O)O)CC3)cc2S1(=O)=O [Example 5] | 100 to 1000 |  | < 0.1
31 | CN1[C@H](C2CCCCC2)CN(c2ccccc2)c2cc(Cl)c(C#CC(C)(C)C(=O)O)cc2S1(=O)=O [Example 1, (R)-4-(7-chloro-3-cyclohexyl-2-methyl-1,1-dioxido-5-phenyl-2,3,4,5-tetrahydrobenzo[f][1,2,5]thiadiazepin-8-yl)-2,2-dimethylbut-3-ynoic acid] | < 100 |  | < 0.1
